The values that follow are results of earlier work, collected in patent publication US20100086647A1, “FEED OR FOOD PRODUCTS COMPRISING FUNGAL MATERIAL” (MEDIMUSH AS, priority 2005, published 2010).

The subject of data set [1] is B. megaterium. The note with it: in vitro.
In data set [2] the test system is S. staphylococcus. The note with it: in vitro.
The subject of data set [3] is S. pyogenes. The note with it: in vitro.
Data set [4] concerns E. coli. The note with it: postulated.
Data set [5] concerns C. jejuni. The conditions noted are these: postulated.
Data set [6] has as its system cytochrome P450s (CYPs).

Turning to `C1SSCSSS1` [Lenthionine], the antibacterial effect result in data set [1], in data set [2] and in data set [3] was “antibacterial” throughout. The effect on microorganism result in data set [4] and in data set [5] was “no effect” throughout.
As to Lentinan, the “expression of cytochrome P450s (CYPs)” value in data set [6] is recorded as “can suppress the expression”.
